{"source": "PubChem BioAssay AID1959", "about": "(Broad Institute, 2009)", "note": "Calls of active or inactive are those of the source.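 How the source made its calls: active means growth-inhibition EC50 no more than tenfold above the top tested dose; inconclusive means flat fit between 30% and 70% inhibition, or unreliable fit; inactive means EC50 more than tenfold above the top tested dose.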"}
{"test_system": "E. coli NEB5alpha growth, BacTiter-Glo luminescence, 4 h", "experiment": "Escherichia coli growth inhibition, dose response, counter-screen for MEX-5/POS-1 RNA-binding inhibitor project, luminescence, NEB5alpha (AID 1959);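 further: pUC19-transformed ampicillin-resistant cells grown in LB with ampicillin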"}
{"smiles": "O=C1c2cccc3c(N4CCCCC4)ccc(c23)C(=O)N1CCO", "EC50": "> 11 µM (inactive)"}
{"smiles": "CCOC(=O)C1Nc2ccc(C(F)(F)F)cc2C2C=CCC12", "note": "(configuration not stated)", "EC50": "> 11 µM (inactive)"}
{"smiles": "CCn1c(/C=C/c2c(C)[nH]c3ccccc23)nc2ccccc2c1=O", "EC50": "> 11 µM (inactive)"}
{"smiles": "O=C(NN1C(=O)c2ccccc2NC1c1ccccn1)c1ccc([N+](=O)[O-])cc1", "note": "(configuration not stated)", "EC50": "> 11 µM (inactive)"}
{"smiles": "CCOc1ccc(/C=c2\\sc3nc(-c4ccco4)nn3c2=O)cc1OCC", "EC50": "> 11 µM (inactive)"}
{"smiles": "CCCCn1c(O)c(/C=N/NC(=O)c2ccncc2)c(=O)[nH]c1=O", "EC50": "> 11 µM (inactive)"}
{"smiles": "CCCCN(C)C(=O)c1cccc(OC2CCN(CC(C)(C)C)CC2)c1", "EC50": "> 11 µM (inactive)"}
{"smiles": "Cc1cc(C(=O)N/N=C/c2ccc(-c3cccc(Cl)c3Cl)o2)n[nH]1", "EC50": "> 11 µM (inactive)"}
{"smiles": "Clc1cccc(CSc2nc3ccncc3[nH]2)c1", "EC50": "> 11 µM (inactive)"}
{"smiles": "CCOC(=O)C1Nc2ccc(Br)cc2C2C=CCC12", "note": "(configuration not stated)", "EC50": "> 11 µM (inactive)"}
{"smiles": "c1coc(-c2nnc(-c3ccco3)nn2)c1", "EC50": "> 11 µM (inactive)"}
{"smiles": "Cc1cc(C=C2C(=O)NC(=O)NC2=O)c(C)n1-c1cccnc1", "EC50": "> 11 µM (inactive)"}
{"smiles": "N=c1c(S(=O)(=O)c2ccc(Cl)cc2)cc2c(=O)n3ccccc3nc2n1C1CCCC1", "EC50": "> 11 µM (inactive)"}
{"smiles": "CCOc1ccc(N/C(=C(/C(Cl)=C(Cl)Cl)[N+](=O)[O-])n2cncn2)cc1", "EC50": "> 11 µM (inactive)"}
{"smiles": "COCCCNC(=O)C(C#N)c1nc2ccccc2nc1N1CCCC1", "note": "(configuration not stated)", "EC50": "> 11 µM (inactive)"}
{"smiles": "COCCCn1c(N)c(-c2nc3ccccc3n2C)c2nc3ccccc3nc21", "EC50": "> 11 µM (inactive)"}
{"smiles": "O=C(/C=C/c1ccc(OCCCF)cc1)Nc1ccnc(-c2cccnc2)n1", "EC50": "> 11 µM (inactive)"}
{"smiles": "CCOC(=O)c1cc(-c2ccc(/C=C3/C(=O)NC(=O)C(C#N)=C3C)o2)ccc1Cl", "EC50": "> 11 µM (inactive)"}
{"smiles": "COc1ccc(-n2nc3c(=O)[nH][nH]c3cc2=O)cc1", "EC50": "> 11 µM (inactive)"}
{"smiles": "O=C(NCC1CCCO1)c1nn2c(C(F)(F)F)cc(-c3cc(Br)cs3)nc2c1Br", "note": "(configuration not stated)", "EC50": "> 11 µM (inactive)"}
{"smiles": "O=C(N/N=C/c1c(O)n(CCc2ccc(F)cc2)c(=O)[nH]c1=O)c1ccccc1", "EC50": "> 11 µM (inactive)"}
{"smiles": "CC(C)(C)NC(=S)NCCc1ccccc1", "EC50": "> 11 µM (inactive)"}
{"smiles": "CCn1c(C)cc(=S)c2ccccc21", "EC50": "> 11 µM (inactive)"}
{"smiles": "COCCn1c(=N)c(S(=O)(=O)c2ccc(Br)cc2)cc2c(=O)n3ccccc3nc21", "EC50": "> 11 µM (inactive)"}
{"smiles": "COc1ccccc1NC(=O)/C(C#N)=C/c1cc([N+](=O)[O-])ccc1N1CCCC1", "EC50": "> 11 µM (inactive)"}
{"smiles": "CCN(CC)C(=O)CSc1nnc2nnc3cc(OC)ccc3n12", "EC50": "> 11 µM (inactive)"}
{"smiles": "O=C(O)C(=O)/C(=C\\c1ccc(Cl)cc1)c1ccc2ccccc2n1", "EC50": "> 11 µM (inactive)"}
{"smiles": "O=C1CCCC2=C1Sc1ccc(Cl)cc1N2", "EC50": "> 11 µM (inactive)"}
{"smiles": "CN1CCc2cccc3c2[C@H]1Cc1ccc(O)c(O)c1-3", "EC50": "> 11 µM (inactive)"}
{"smiles": "Cc1cc(C(=O)O)ccc1-n1c(C)cc(/C=C(/C#N)C(=O)Nc2ccccc2)c1C", "EC50": "> 11 µM (inactive)"}
{"smiles": "COc1ccc(/C=C2/N=C(c3cccs3)OC2=O)cc1OC(C)C", "EC50": "> 11 µM (inactive)"}
{"smiles": "Cc1cc[n+](C2=C([O-])c3ccccc3C(=O)/C2=N\\S(=O)(=O)c2cccs2)cc1C", "EC50": "> 11 µM (inactive)"}
{"smiles": "c1ccc(-c2cn3nc(-c4ccccc4)c(-c4ccccc4)nc3n2)cc1", "EC50": "> 11 µM (inactive)"}
{"smiles": "O=C(NCc1ccccc1)C1Nc2ccc(OC(F)(F)F)cc2C2C=CCC12", "note": "(configuration not stated)", "EC50": "> 11 µM (inactive)"}
{"smiles": "O=C(O)C1OC(Oc2cc3oc(-c4ccccc4)cc(=O)c3c(O)c2O)C(O)C(O)C1O", "note": "(configuration not stated)", "EC50": "> 11 µM (inactive)"}
{"smiles": "CCN(CC)c1ccc(C=N/C(C#N)=C(\\N)C#N)cc1", "EC50": "> 11 µM (inactive)"}
{"smiles": "O=C(O)c1ccc2c(c1)[C@@H]1C=CC[C@@H]1[C@H](c1ccccn1)N2", "EC50": "> 11 µM (inactive)"}
{"smiles": "CC1(C)c2[nH]c3ccccc3c2C[C@@H]2C(=O)N(c3ccc(F)cc3F)C(=O)N21", "EC50": "> 11 µM (inactive)"}
{"smiles": "COC(=O)CCC(=O)OC1(C)C(=O)C2=CN(CCc3ccccn3)C(c3ccc(OC)cc3)=CC2=C(Br)C1=O", "note": "(configuration not stated)", "EC50": "> 11 µM (inactive)"}
{"smiles": "Cc1cc(C(=O)O)ccc1-n1c(C)cc(C=C2C(=O)c3ccccc3C2=O)c1C", "EC50": "> 11 µM (inactive)"}
{"smiles": "CCn1c(SCC(=O)Nc2cc(C)on2)nnc1-c1ccc(OC)cc1", "EC50": "> 11 µM (inactive)"}
{"smiles": "COc1cccc(C2C3CN(C)CC=C3C(C#N)=C(N)C2(C#N)C#N)c1OC", "note": "(configuration not stated)", "EC50": "> 11 µM (inactive)"}
{"smiles": "C=CCOc1cccc(C2C(C(=O)c3cc4ccccc4o3)=C(O)C(=O)N2c2cc(C)on2)c1", "note": "(configuration not stated)", "EC50": "> 11 µM (inactive)"}
{"smiles": "Cc1cccc(N=Nc2c(O)[nH]c3ccc(Br)cc23)c1", "EC50": "> 11 µM (inactive)"}
{"smiles": "C=CCN1C(=O)/C(=C2/Sc3ccccc3N2CC)SC1=S", "EC50": "> 11 µM (inactive)"}
{"smiles": "N#Cc1c(-c2ccc(Cl)cc2)c2c([nH]c1=O)-c1ccccc1OC2", "EC50": "> 11 µM (inactive)"}
{"smiles": "CC(C)c1nnc(N2C(=O)C(O)=C(C(=O)c3cccs3)C2c2ccccc2)s1", "note": "(configuration not stated)", "EC50": "> 11 µM (inactive)"}
